Test results taken from paper PMC10548421, “Anticancer Potential of Diruthenium Complexes with Bridging Hydrocarbyl Ligands from Bioactive Alkynols” (Inorganic Chemistry, 2023).

Legend:
[1] = tested on: MRC-5 normal human lung fibroblast cell line; assay: MTT in vitro cytotoxicity, MRC-5 (selectivity); type: cell-based; settings: for IC50: normal cells, MTT, incubation 24 h, mean ± SD
Protocol: (§1) The cytotoxicity assessment was conducted on various human cancer cell lines, including A2780 ovarian carcinoma, A2780R cisplatin-resistant ovarian carcinoma, MCF-7 breast, HOS osteosarcoma, A549 epithelial lung, PANC-1 pancreatic, Caco-2 colorectal, PC-3 prostate adenocarcinoma, and HeLa cervical cell lines. Additionally, the assessment extended to a normal human fetal fibroblast cell line (MRC-5). Cells were obtained from ATCC collection and cultivated according to the producer’s instructions. Stock solutions of the compounds were prepared in DMF immediately before application, and diluted with H2O to achieve the final concentration of 0.1% v/v DMF.[99] The culture media were enriched with 10% fetal calf serum. Subsequently, the cells were exposed to the tested compounds, vehicle (0.1% v/v DMF) and Triton X-100 (1% v/v), during incubation. The conventional MTT assay was carried out following different incubation periods (Tables 5-6). The absorbance was measured at 570 nm by using a spectrophotometer (Infinite M200, Schoeller Instruments, Prague, Czech Republic). The obtained data are presented as the percentage of cell viability with 100% representing negative control treatment (0.1% v/v DMF) and 0% representing the positive control (Triton X-100). The half-maximal inhibitory concentrations (IC50) were determined from dose–response curves using GraphPad Prism 6 software (GraphPad Software, San Diego, USA).

[2] = target: bovine serum albumin (BSA) (Bos taurus, UniProt P02769); assay: Interaction with BSA (MALDI-TOF MS); type: binding; settings: BSA 30 μM, complex 1 mM, 48 h at 37 °C
Protocol: Bovine serum albumin (BSA, 30 μM in 50 mM NH4HCO3) was incubated with the selected complexes (3a or 3b, 1 mM) at 37 °C for 48 h. Each complex was preliminarily dissolved in 50 μL of methanol. Following the incubation, an aliquot of the protein was adsorbed by repeated aspiration and release (20 times, 10-μL volume) into a ZipTip-C4 pipet tip (Merck, Darmstadt, Germany) that had been pre-equilibrated in 0.1% trifluoroacetic acid (TFA), washed by the equilibrating solution, and eluted into 10 μL of 70% acetonitrile containing 0.1% TFA. The eluate was subsequently subjected to evaporation using a vacuum centrifuge, and the residue was dissolved in 3 μL of 0.1% TFA. A 1 μL aliquot of this solution was deposited on an MSP Big Anchor 96 target plate (Bruker Daltonik, Bremen, Germany), onto which 1 μL of the matrix solution (sinapinic acid, 12 mg/mL in 0.1% TFA and 50% acetonitrile) was immediately superimposed. The sample was then allowed to dry. Mass spectra were acquired using a Microflex LRF20 MALDI-TOF mass spectrometer operated in a linear positive ion mode and controlled using flexControl 3.4 software from Bruker Daltonik). Protein Standard II, from Bruker Daltonik, was used for external calibration. All spectra were subjected to processing by using flexAnalysis 3.4 software from Bruker Daltonik.

[3] = Octanol/water partition coefficient, shake-flask with UV–vis; type: physicochemical; settings: 21 °C
Protocol: Partition coefficients (Pow), defined by the formula Pow = corg/caq, wherein corg and caq denote the molar concentrations of the specific compound in octanol and aqueous phases, respectively, were obtained using the shake-flask method with UV–vis measurements, following a previously described procedure (Table 3).[98] All the operations were carried out at 21 ± 1 °C. The wavelength corresponding to the maximum absorption of each compound within the range 350–430 nm was employed for quantifying using UV–vis techniques.

[4] = tested on: A2780 cells; assay: Apoptosis, Annexin V/propidium iodide flow cytometry; type: cell-based, human; settings: A2780, 4 μM, 24 h
Protocol: (§2) The A2780 ovarian carcinoma cell line was received from Merck (reference 93112519–1VL) and cultured at 37 °C in an environment with 5% CO2. The cultivation was carried out in complete cell culture medium (RPMI-1640 medium, Merck), which was supplemented with 10% fetal bovine serum (FBS, Merck), 1% L-glutamine (Merck) and 1% penicillin–streptomycin–neomycin (PSN, Merck). For the flow cytometry experiments, three independent duplicates were analyzed using a BD FACSVerse flow cytometer (Becton Dickinson, USA). At least 5 × 10^3 events were recorded for each sample. The same procedure was replicated for the experiments described below. Solutions of the complexes were formulated using the stock solutions (Section 5.1).
Apoptosis assay was performed using an Annexin V-FITC/PI commercial kit (V13242, Thermo Fisher Scientific, USA), while caspase 3/7 activation assay was performed with a CellEvent Caspase-3/7 Green Flow Cytometry Assay Kit (C10427, Thermo Fisher Scientific, USA). A2780 cells were seeded in 24-well plates at a density of 5 × 10^4 cells per well; after 24 h, the cells were exposed to 4 μM solution of the selected complex for 24 h. […] The supernatant was collected, cells were washed with PBS (0.1 M, pH 7.4), and trypsin was added (0.25% trypsin-EDTA, GibcoTM). Finally, complete cell culture medium was added to stop the trypsinization, and a final volume of 500 μL was divided into two 250 μL aliquots, following the protocol provided by the manufacturer. Samples were centrifuged, treated with the respective buffers, and then incubated in the dark at room temperature for 10 min (Annexin V-FITC/PI) or at 37 °C for 30 min (CellEventTM Caspase-3/7 Green Detection Reagent).

[5] = tested on: A2780 cells; assay: Autophagy analysis (CYTO-ID); type: cell-based, human; settings: A2780, complexes 4 μM, cisplatin 15 μM, 24 h
Protocol: as §2
The potential induction of autophagy by 3a and 3b in A2780 cells was studied with the kit CYTO-ID Autophagy Detection 2.0 (from Enzo Life Sciences, USA), following the protocol provided by the manufacturer. […] The supernatant was collected, cells were washed with warm PBS, detached using 0.25% trypsin-EDTA (Gibco) and resuspended in a cell culture medium. Diluted CYTO-ID Green stain solution (according to the protocol) was used to stain the samples. Following incubation for 30 min in a light-protected environment, the samples were washed with PBS (phosphate-buffered saline). Subsequently, a flow cytometry experiment was conducted. A mixture of chloroquine (10 μM) and rapamycin (0.5 μM) was used as positive control.

[6] = tested on: PC-3 human prostate carcinoma cell line; assay: MTT in vitro cytotoxicity, PC-3; type: cell-based; settings: incubation 24 h, mean ± SD
Protocol: as §1

[7] = Stability in H2O/CH3OH solution (UV–vis); type: physicochemical; settings: ca. 5:1 v/v
Protocol: […] The percentage of remaining complex in the solution was calculated by considering the change in absorbance at the characteristic wavelength. The identical procedure was employed to evaluate stability in MeOH and DMEM (about 1:5 v/v) solutions. DMEM stands for the cell culture medium (containing 1000 mg/L glucose and L-glutamine, excluding sodium bicarbonate and phenol red; reference D2902-Merck).

[8] = tested on: HOS human osteosarcoma cell line; assay: MTT in vitro cytotoxicity, HOS; type: cell-based; settings: incubation 24 h, mean ± SD
Protocol: as §1

[9] = tested on: PANC-1 human pancreatic carcinoma cell line; assay: MTT in vitro cytotoxicity, PANC-1; type: cell-based; settings: incubation 24 h, mean ± SD
Protocol: as §1

bovine serum albumin (BSA), sequence (P02769 25-607): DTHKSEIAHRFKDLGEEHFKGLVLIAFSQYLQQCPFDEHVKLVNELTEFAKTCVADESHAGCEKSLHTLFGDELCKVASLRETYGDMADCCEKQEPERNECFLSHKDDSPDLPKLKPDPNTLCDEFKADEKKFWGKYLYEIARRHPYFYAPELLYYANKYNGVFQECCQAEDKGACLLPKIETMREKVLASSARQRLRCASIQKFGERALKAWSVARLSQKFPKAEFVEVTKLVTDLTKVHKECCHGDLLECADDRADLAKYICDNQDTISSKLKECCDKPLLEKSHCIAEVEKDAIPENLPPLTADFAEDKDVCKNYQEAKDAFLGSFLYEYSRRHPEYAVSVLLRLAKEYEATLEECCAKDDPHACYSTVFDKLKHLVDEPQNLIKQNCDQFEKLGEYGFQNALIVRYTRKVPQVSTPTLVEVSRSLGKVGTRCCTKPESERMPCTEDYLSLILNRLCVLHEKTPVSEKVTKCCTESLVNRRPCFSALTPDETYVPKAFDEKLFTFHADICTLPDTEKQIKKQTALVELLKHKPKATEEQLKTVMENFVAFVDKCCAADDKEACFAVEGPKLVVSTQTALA

Row | Structure (SMILES) | IC50 on healthy MRC-5 cell line compared to the average IC50 values of the cancer cell lines ([1]; 24 h, selectivity) | IC50 [1] | mass variation of adduct with respect to BSA [2] | Log Pow [3] | proapoptotic effect, Annexin V/PI (in words) [4] | autophagy level (in words) [5] | IC50 [6] | residual complex % in H2O/CH3OH ([7]; 30 min) | residual complex % in H2O/CH3OH ([7]; 2 h) | residual complex % in H2O/CH3OH ([7]; 18 h) | IC50 [8] | IC50 [9]
1 | CC12CCC3c4ccc(O)cc4CCC3C1CCC2=C=[CH][Ru]1(=[C]=O)([CH]2C=CC=C2)[C](=O)[Ru+]1(=[C]=O)[CH]1C=CC=C1.F[B-](F)(F)F (mixture of isomers) [3b, [Ru2Cp2(CO)3{μ–η^1:η^2-CH=C=(estradiolylidene)}]BF4] | approximately 2 fold | 25.9 ± 2.9 µM | 483 Da | 1.24 ± 0.16 | much less effective than that of cisplatin | only moderately | 13.4 ± 1.8 µM | 99% | 92% | 43% | 12.6 ± 0.5 µM | 19.8 ± 2.3 µM
2 | F[B-](F)(F)F.O=[C]=[Ru+]1([CH]2C=CC=C2)[C](=O)[Ru]1(=[C]=O)([CH]=C=C1CCCC1)[CH]1C=CC=C1 (stereo not shown) [3a, [Ru2Cp2(CO)3{μ–η^1:η^2-CH=C=(cyclopentylidene)}]BF4] | – | 38.3 ± 3.9 µM | 3434 Da | –0.54 ± 0.02 | much less effective than that of cisplatin | not appreciable | 22.2 ± 2.4 µM | – | 96% | 78% | 14.6 ± 0.5 µM | 28.4 ± 3.9 µM
